In brackets after ≈: the same amount, converted by molar mass.
Assays:
[1] = target: Cytochrome P450 2D6 (Homo sapiens, UniProt P10635); experiment: Inhibition of CYP2D6 in human liver microsomes using dextromethorphan as substrate preincubated for 5 mins followed by NADPH addition measured after 10 mins by LC-MS/MS analysis
[2] = Solubility of the compound at pH 2.1; conditions: buffer
[3] = target: T1, Cytochrome P450 3A4 (Homo sapiens, UniProt P08684); experiment: Inhibition of CYP3A4 in human liver microsomes using testosterone as substrate preincubated for 5 mins followed by NADPH addition measured after 10 mins by LC-MS/MS analysis
T1 sequence (P08684 whole entry): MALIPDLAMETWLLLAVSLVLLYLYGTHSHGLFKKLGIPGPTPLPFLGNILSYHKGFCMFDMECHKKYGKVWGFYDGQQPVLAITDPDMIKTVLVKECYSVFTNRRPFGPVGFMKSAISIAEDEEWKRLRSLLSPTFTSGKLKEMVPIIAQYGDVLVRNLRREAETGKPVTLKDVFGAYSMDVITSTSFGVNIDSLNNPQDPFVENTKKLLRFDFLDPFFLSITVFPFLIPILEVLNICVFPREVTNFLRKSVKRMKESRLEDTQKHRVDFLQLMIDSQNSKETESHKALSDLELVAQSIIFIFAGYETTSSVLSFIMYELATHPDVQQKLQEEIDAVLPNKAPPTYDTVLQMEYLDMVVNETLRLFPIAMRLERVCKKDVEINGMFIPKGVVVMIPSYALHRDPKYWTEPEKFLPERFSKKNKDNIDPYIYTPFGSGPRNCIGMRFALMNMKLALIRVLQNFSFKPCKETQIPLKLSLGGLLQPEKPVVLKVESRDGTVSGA

[4] = target: Cytochrome P450 2C19 (Homo sapiens, UniProt P33261); experiment: Inhibition of CYP2C19 in human liver microsomes using (S)-mephenytoin as substrate preincubated for 5 mins followed by NADPH addition measured after 40 mins by LC-MS/MS analysis
Sequence of Cytochrome P450 2C19 (P33261 whole entry): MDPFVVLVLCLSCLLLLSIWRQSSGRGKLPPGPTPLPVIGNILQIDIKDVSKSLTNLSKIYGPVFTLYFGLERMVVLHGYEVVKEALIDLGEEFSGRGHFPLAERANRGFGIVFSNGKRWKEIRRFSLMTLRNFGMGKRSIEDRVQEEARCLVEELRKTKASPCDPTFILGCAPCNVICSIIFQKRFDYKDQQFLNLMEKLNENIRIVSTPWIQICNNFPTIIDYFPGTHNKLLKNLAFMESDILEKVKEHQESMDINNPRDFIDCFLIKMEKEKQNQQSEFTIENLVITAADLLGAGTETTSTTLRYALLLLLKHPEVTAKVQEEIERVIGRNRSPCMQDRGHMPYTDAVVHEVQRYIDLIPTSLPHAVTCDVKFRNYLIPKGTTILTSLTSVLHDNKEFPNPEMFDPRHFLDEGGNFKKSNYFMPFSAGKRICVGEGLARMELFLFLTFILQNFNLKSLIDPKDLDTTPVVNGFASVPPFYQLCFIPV

[5] = target: T1, Cytochrome P450 3A4; experiment: Inhibition of CYP3A4 in human liver microsomes using midazolam as substrate preincubated for 5 mins followed by NADPH addition measured after 10 mins by LC-MS/MS analysis
[6] = target: Cytochrome P450 2C9 (Homo sapiens, UniProt P11712); experiment: Inhibition of CYP2C9 in human liver microsomes using diclofenac as substrate preincubated for 5 mins followed by NADPH addition measured after 10 mins by LC-MS/MS analysis
Sequence of Cytochrome P450 2C9 (P11712 whole entry): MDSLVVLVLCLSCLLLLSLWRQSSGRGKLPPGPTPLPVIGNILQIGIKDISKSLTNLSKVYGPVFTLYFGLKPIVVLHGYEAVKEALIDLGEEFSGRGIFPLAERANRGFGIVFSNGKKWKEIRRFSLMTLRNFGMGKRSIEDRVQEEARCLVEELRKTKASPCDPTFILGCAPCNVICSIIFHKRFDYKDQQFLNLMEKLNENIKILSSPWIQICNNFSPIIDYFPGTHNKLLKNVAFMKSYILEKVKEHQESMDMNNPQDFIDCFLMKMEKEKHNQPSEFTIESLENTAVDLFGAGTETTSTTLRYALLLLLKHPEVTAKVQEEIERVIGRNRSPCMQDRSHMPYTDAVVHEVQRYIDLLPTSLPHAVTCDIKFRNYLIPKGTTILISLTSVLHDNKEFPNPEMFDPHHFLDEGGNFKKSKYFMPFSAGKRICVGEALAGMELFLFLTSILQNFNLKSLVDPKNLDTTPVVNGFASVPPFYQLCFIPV

[7] = Metabolic stability in mouse liver microsomes assessed as parent compound remaining at 1 uM preincubated for 5 mins followed by NADPH addition after 30 mins by LC-MS/MS analysis; type: ADME, Microsome; conditions: read-out: Stability
[8] = target: T2, Cytochrome P450 1A2 (Homo sapiens, UniProt P05177); experiment: Inhibition of CYP1A2 in human liver microsomes using phenacetin as substrate preincubated for 5 mins followed by NADPH addition measured after 10 mins by LC-MS/MS analysis
T2 sequence (P05177 whole entry): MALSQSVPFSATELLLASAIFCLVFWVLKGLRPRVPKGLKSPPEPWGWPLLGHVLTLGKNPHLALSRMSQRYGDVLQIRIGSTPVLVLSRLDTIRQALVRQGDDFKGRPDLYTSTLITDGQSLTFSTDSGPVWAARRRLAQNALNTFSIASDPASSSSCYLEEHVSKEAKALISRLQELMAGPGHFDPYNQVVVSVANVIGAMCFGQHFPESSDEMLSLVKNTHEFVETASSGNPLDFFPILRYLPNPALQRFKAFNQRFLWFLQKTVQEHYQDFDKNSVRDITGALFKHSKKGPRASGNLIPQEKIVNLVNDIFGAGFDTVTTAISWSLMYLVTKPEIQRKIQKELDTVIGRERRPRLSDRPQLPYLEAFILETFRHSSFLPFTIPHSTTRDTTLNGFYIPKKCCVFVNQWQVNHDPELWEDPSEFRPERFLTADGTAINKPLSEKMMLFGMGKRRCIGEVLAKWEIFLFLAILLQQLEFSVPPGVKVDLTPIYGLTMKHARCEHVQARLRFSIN

[9] = Solubility of the compound at pH 4; conditions: buffer
[10] = Metabolic stability in rat liver microsomes assessed as parent compound remaining at 1 uM preincubated for 5 mins followed by NADPH addition after 30 mins by LC-MS/MS analysis; type: ADME, Microsome; conditions: read-out: Stability
[11] = Metabolic stability in human liver microsomes assessed as parent compound remaining at 1 uM preincubated for 5 mins followed by NADPH addition after 30 mins by LC-MS/MS analysis; type: ADME, Microsome; conditions: read-out: Stability
[12] = Solubility of the compound at pH 7.4; conditions: buffer
[13] = target: T3, Nuclear receptor ROR-gamma (Homo sapiens, UniProt P51449); experiment: Inverse agonist activity at GST-tagged RORgammat LBD (unknown origin) using fluorescein-D22 co-activator peptide as substrate incubated for 1 hr by TR-FRET assay
T3 sequence (P51449 whole entry): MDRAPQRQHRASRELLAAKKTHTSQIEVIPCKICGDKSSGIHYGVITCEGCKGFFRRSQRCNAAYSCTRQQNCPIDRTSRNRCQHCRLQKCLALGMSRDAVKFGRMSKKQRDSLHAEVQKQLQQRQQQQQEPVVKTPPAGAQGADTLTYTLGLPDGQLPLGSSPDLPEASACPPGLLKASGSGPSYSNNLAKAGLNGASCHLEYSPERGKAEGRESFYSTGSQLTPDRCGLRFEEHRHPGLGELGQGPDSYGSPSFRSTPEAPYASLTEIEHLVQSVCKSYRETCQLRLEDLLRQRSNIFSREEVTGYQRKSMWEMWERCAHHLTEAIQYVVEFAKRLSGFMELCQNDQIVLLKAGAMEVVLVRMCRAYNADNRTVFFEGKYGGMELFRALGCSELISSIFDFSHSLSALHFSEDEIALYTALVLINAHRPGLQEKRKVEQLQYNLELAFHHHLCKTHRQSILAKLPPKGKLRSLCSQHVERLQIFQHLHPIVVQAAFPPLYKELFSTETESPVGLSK

[14] = target: T3, Nuclear receptor ROR-gamma; experiment: Transactivation of recombinant GAL4-DBD fused RORgammat LBD (unknown origin) expressed in HEK293T cells incubated for 18 to 24 hrs by dual-Glo luciferase assay; type: cell-based
[15] = Tmax in mouse at 10 mg/kg, po; type: ADME, organism-based; conditions: in vivo
[16] = Half life in mouse at 3 mg/kg, iv; type: ADME, organism-based; conditions: in vivo
[17] = target: T4, Nuclear receptor ROR-alpha (Homo sapiens, UniProt P35398); experiment: Inhibition of GAL4-DBD fused RORalpha LBD (unknown origin) expressed in HEK293T cells; type: cell-based
T4 sequence (P35398 whole entry): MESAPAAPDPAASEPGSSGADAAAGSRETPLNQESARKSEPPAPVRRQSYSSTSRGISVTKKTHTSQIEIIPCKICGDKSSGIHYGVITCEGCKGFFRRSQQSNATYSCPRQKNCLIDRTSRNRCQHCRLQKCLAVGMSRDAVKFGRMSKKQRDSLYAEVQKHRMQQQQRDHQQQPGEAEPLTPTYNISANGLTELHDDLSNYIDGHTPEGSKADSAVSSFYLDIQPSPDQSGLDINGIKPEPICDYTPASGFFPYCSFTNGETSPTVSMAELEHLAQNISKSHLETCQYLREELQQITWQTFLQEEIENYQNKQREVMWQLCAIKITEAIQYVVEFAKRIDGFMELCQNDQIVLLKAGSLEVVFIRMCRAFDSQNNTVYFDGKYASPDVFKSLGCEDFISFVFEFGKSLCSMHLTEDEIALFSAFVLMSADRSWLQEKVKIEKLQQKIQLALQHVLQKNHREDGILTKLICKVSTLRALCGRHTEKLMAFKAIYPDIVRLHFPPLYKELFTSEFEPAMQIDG

[18] = Cmax in mouse at 10 mg/kg, po; type: ADME, organism-based; parameters: dose 10 mg/kg, route oral; conditions: in vivo
[19] = Clearance in mouse at 3 mg/kg, iv; type: ADME, organism-based; conditions: in vivo
[20] = Oral bioavailability in mouse at 10 mg/kg; type: ADME, organism-based; conditions: in vivo
[21] = Volume of distribution at steady state in mouse at 3 mg/kg, iv; type: ADME, organism-based; conditions: in vivo, read-out: Vdss
[22] = AUC (0 to 24 hrs) in mouse at 10 mg/kg, po; type: ADME, organism-based; parameters: dose 10 mg/kg, time < 24 hr, route oral; conditions: in vivo
[23] = target: T5, Nuclear receptor ROR-gamma (Mus musculus) (UniProt P51450); experiment: Transrepression of RORgammat in Balb/c mouse splenocytes assessed as inhibition of anti-CD3/anti-CD28 stimulated IL-17 gene expression at 30 uM measured after 24 hrs in presence of anti-CD3/anti-CD28; type: cell-based
T5 sequence (whole entry): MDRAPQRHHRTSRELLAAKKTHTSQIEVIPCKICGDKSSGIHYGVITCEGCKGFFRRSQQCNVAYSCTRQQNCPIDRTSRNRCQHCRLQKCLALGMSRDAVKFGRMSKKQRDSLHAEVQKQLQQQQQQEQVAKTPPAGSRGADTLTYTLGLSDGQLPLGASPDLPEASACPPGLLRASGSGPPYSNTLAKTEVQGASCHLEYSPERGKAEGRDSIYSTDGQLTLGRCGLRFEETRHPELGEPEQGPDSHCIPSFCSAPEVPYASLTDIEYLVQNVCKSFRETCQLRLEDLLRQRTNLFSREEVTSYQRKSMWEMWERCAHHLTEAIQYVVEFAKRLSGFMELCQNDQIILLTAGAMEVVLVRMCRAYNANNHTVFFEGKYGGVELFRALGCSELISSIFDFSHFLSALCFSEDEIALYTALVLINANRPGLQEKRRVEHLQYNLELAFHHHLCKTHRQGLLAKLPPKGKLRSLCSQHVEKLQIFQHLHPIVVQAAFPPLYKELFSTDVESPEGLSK

[24] = target: T5, Nuclear receptor ROR-gamma (Mus musculus); experiment: Transrepression of RORgammat in Balb/c mouse splenocytes assessed as inhibition of anti-CD3/anti-CD28 stimulated IL-17 gene expression at 0.3 uM measured after 24 hrs in presence of anti-CD3/anti-CD28; type: cell-based
[25] = target: T5, Nuclear receptor ROR-gamma (Mus musculus); experiment: Transrepression of RORgammat in Balb/c mouse splenocytes assessed as inhibition of anti-CD3/anti-CD28 stimulated IL-17 gene expression at 3 uM measured after 24 hrs in presence of anti-CD3/anti-CD28; type: cell-based

Sequence of Cytochrome P450 2D6 (P10635 whole entry): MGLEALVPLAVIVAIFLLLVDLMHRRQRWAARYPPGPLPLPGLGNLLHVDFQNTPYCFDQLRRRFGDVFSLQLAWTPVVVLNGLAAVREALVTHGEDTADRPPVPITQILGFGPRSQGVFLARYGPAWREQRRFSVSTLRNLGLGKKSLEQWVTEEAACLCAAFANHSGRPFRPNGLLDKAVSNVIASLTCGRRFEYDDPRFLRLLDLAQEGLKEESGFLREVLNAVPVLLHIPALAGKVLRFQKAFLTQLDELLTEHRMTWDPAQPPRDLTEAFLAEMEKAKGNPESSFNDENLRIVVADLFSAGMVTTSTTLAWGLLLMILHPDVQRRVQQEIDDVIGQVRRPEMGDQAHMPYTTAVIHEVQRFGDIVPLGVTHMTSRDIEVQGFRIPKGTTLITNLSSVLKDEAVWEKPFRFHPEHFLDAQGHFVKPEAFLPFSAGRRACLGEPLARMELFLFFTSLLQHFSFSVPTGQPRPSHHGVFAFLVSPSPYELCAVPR

| Compound | IC50 [1] | solubility [2] | IC50 [3] | IC50 [4] | IC50 [5] | IC50 [6] | remaining at 0.5 h, 1 µM [7] | IC50 [8] | solubility [9] | remaining at 0.5 h, 1 µM [10] | remaining at 0.5 h, 1 µM [11] | IC50 [14] | Tmax [15] | half-life [16] | IC50 [17] | Cmax [18] | clearance [19] | bioavailability [20] | Vd [21] | AUC(0-t) at 24 h [22] | further results |
| --- | --- | --- | --- | --- | --- | --- | --- | --- | --- | --- | --- | --- | --- | --- | --- | --- | --- | --- | --- | --- | --- |
| O=C(O)c1ccc(-n2cc(C(=O)c3c(Cl)cccc3Cl)c3c(F)cccc32)cc1 | > 50 µM | < 1 µM | 49 µM | > 50 µM | > 50 µM | > 50 µM | 100% | > 50 µM | < 1 µM | 78% | 100% | 0.076 µM | – | – | – | – | – | – | – | – | solubility [12]: > 2000 µM; IC50 [13]: 0.025 µM |
| O=C(O)c1ccc(-n2cc(C(=O)c3c(Cl)cccc3C(F)(F)F)c3c(F)cccc32)c(F)c1 | > 50 µM | – | – | > 50 µM | – | 20.3 µM | 78% | > 50 µM | – | 76% | 100% | 0.016 µM | 0.5 h | 2.7 h | > 30 µM | 17.5 µM | 4.6 mL/min/kg | 62% | 1 L/kg | 46.5 µM·h | – |
| O=C(O)c1ccc(-n2cc(C(=O)c3c(Cl)cccc3Cl)c3ccccc32)c(F)c1 | – | – | – | – | – | – | 91% | – | – | 51% | 92% | – | 0.5 h | 1.8 h | > 30 µM | 5.7 µM | 21.2 mL/min/kg | 52% | 2.8 L/kg | 9.1 µM·h | – |
| O=C(O)c1ccc(-n2cc(C(=O)c3c(Cl)cccc3C(F)(F)F)c3cccc(F)c32)cc1 | – | – | – | – | – | – | 88% | – | – | 100% | 88% | – | – | – | – | – | – | – | – | – | inhibition [23]: 55%; inhibition [24]: 18%; inhibition [25]: 46% |
| Cc1cccc(Cl)c1C(=O)c1cn(-c2ccc(C(=O)O)cc2)c2ccccc12 | > 50 µM | 1 µM (≈ 0.39 µg/mL) | – | > 50 µM | > 50 µM | 13.5 µM | 85% | > 50 µM | 1 µM (≈ 0.39 µg/mL) | 83% | 89% | 0.025 µM | 0.25 h | 3.2 h | > 30 µM | 18.3 µM | 9.6 mL/min/kg | 45% | 2.5 L/kg | 19.6 µM·h | inhibition [23]: 56%; inhibition [24]: 3%; inhibition [25]: 49%; solubility [12]: > 2000 µM |
| O=C(O)c1ccc(-n2cc(C(=O)c3c(Cl)cccc3C(F)(F)F)c3cccnc32)c(F)c1 | > 50 µM | – | > 50 µM | > 50 µM | – | 17.2 µM | 87% | > 50 µM | – | 73% | 100% | 0.015 µM | 0.5 h | 3.2 h | > 30 µM | 12.1 µM | 11 mL/min/kg | 100% | 2.4 L/kg | 35.1 µM·h | – |
